Legend:
[1] = system: HIV-1JR-FL Env mutant R579A pseudovirus; format: cell-based; details: compared with wild-type HIV-1JR-FL pseudovirus
HIV-1 NL4-3(36G)V38A = details: T20-resistant NL4-3(36G)V38A; p24 ELISA; mean ± SD
HIV-1 IIIB = assay: Cell-cell HIV-1 IIIB transmission, MT-2 to CEMx174 5.25 M7 cells; format: cell-based; details: Human immunodeficiency virus 1, IIIB; infected MT-2 to CEMx174 5.25 M7 cells; luciferase
Experimental: Inhibition of fusion between MT-2 cells infected by HIV-1 strains (X4 and R5 viruses) with CEMx174 5.25 M7 cells, which express CD4 and both coreceptors, CXCR4 and CCR5, was determined by a luciferase assay. Briefly, MT-2 cells were infected with the corresponding HIV-1 strains for 7 days. The infected MT-2 cells were washed three times and resuspended in culture medium to 2 × 10^5/ml. Then, 50 μl of a compound at graded concentrations in triplicate was incubated with equal volumes of HIV-1-infected MT-2 cells at 37°C for 30 min. Next, 100 μl of CEMx174 5.25 M7 cells (4 × 10^5/ml) was added, and the cells were incubated at 37°C for 3 days. The cells were collected, washed, and lysed with the lysing reagent included in the luciferase kit (Promega, Corp., Madison, Wis). Aliquots of cell lysates were transferred to 96-well flat-bottom luminometer plates (Costar), followed by the addition of luciferase substrate (Promega). Luciferase activity was measured using an Ultra 384 luminometer. ADS-J1 was used as a positive control for all cell–cell fusion assays.

[2] = system: HIV-1 Env-mediated fusion of CHO-WT cells with MT-2 cells; assay: HIV-1 Env-mediated cell-cell fusion (syncytium formation); format: cell-based; details: Human immunodeficiency virus 1, MT2; CHO-WT effector cells, MT-2 target cells; 48 h
Experimental: Here, a noninfectious cell–cell fusion assay was used to determine the effect of NSPD-12m on the early step of HIV-1 entry into a target cell as described previously ([Li et al., 2010]). Briefly, 1 × 10^5 CHO-WT cells expressing the HIV-1 envelope glycoprotein gp160 (as the effector cells) were preincubated with graded concentrations of NSPD-12m at 37°C for 30 min. Then, 1 × 10^5 MT-2 cells expressing the CD4 receptor and the CXCR4 coreceptor (as the target cells) were added and cocultured for another 48 h. The obvious syncytia could be counted under an inverted microscope (Nikon, Japan). Four fields per well were examined randomly. The EC50 values were calculated as described previously ([Chou and Talalay, 1984]).

HIV-1 92UG029 = assay: Anti-HIV-1 activity, primary strain 92UG029; format: cell-based; details: Human immunodeficiency virus 1, luciferase readout, mean ± SD
[3] = system: HIV-1 NL4-3(36G)V38A,N42T; details: T20-resistant NL4-3(36G)V38A,N42T; p24 ELISA; mean ± SD
HIV-1 BCF02 = assay: microbe, parasite or virus in culture; format: cell-based; details: Human immunodeficiency virus 1, primary strain BCF02, luciferase readout, mean ± SD
Experimental: (§1) The HIV-1 replication-inhibiting activity of compounds was determined as previously described ([Li et al., 2013]). Briefly, 1 × 10^4 TZM-bl or MT-2 cells were infected with primary HIV-1 strains or T20-resistant HIV-1 strains (100 TCID50) in 200 µl of RPMI-1640 medium containing 10% FBS in the presence or absence of compounds at graded concentrations for 12 h. The culture medium was replaced with fresh medium without the compounds. After culture for an additional 48 h, supernatants or cells were collected from each well. For the primary HIV-1 strains, the cells were treated using a luciferase kit. Briefly, the cells were lysed with the lysis reagent and were transferred into a 96-well flat-bottom luminometer plate after three washes with phosphate-buffered saline (PBS) (Costar Corning Inc., Corning, NY), followed by addition of the luciferase substrate included in the luciferase kit (Promega Corp., Madison, WI). The luciferase activity was measured immediately by an Ultra 384 microplate reader (Tecan, Research Triangle Park, NC). T20 was used as a positive control. For the T20-resistant HIV-1 strains, 100 µl of culture supernatant was mixed with 100 µl of 5% Triton X-100. Then, those virus lysates were assayed for p24 antigen by enzyme linked immunosorbent assay (ELISA) as previously described ([Li et al., 2010]). Absorbance at 450 nm was recorded in an ELISA reader (Ultra 384, Tecan). EC50 values were calculated using the computer program CalcuSyn ([Chou and Talalay, 1984]).

HIV-1 93/BR/020 = assay: microbe, parasite or virus in culture; format: cell-based; details: Human immunodeficiency virus 1, primary strain 93/BR/020, luciferase readout, mean ± SD
Experimental: as §1

HIV-1 US4 (GS 007) = assay: microbe, parasite or virus in culture; format: cell-based; details: Human immunodeficiency virus 1, primary strain US4 (GS 007), luciferase readout, mean ± SD
Experimental: as §1

[4] = system: HIV-1SF162 (R5 strain) Env pseudotyped virus; assay: microbe, parasite or virus in culture; format: cell-based; details: Human immunodeficiency virus 1, single-cycle infection, luciferase
[5] = system: HIV-1JR-FL Env mutant Q577A pseudovirus; format: cell-based; details: compared with wild-type HIV-1JR-FL pseudovirus
[6] = molecular target: T1, synthetic peptide N36 (gp41 NHR) (Human immunodeficiency virus type 1 group M subtype B, UniProt P04578); assay: Surface plasmon resonance binding to N36; set-up: species or system HIV-1; details: SPR, compound immobilized on chip, N36 injected, 25°C; read-out: binding affinity (KD) to N36
T1 construct: purchased GL Biochem of China; host or cells: chemical solid-phase Fmoc synthesis
Experimental: N36 at different concentrations (125, 250, and 500 µM in PBS) was injected at a flow rate of 2 µl/s with an association and dissociation time of 300 s at 25°C. At the end of each cycle, glycine–HCl buffer (pH 2.0) at a flow rate of 3 µl/s was used to regenerate the surface of the sensor chip platform with a regeneration time of 300 s. The binding affinity (KD) was calculated using the PlexeraDE data analysis module and GraphPad Prism 5.0 software.

[7] = system: T20-resistant HIV-1 strains; assay: Anti-HIV-1 activity, panel of T20-resistant mutants; format: cell-based; details: Human immunodeficiency virus 1; range over T20-resistant mutants; read-out: EC50 values against a series of T20-resistant mutants
Experimental: as §1, with “Then, those virus lysates were assayed for p24 antigen by enzyme linked immunosorbent assay (ELISA) as previously described ([Li et al., 2010]).” left out

T1 sequence (P04578 546-581): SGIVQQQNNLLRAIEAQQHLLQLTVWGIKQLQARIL

Cc1cc(/C=C2\SC(=S)N(Cc3ccccc3C(F)(F)F)C2=O)c(C)n1-c1ccc(O)c(C(=O)O)c1 [NSPD-12m]
inhibitory activity against R579A mutant pseudovirus [1]: retained the inhibitory activity
IC50 (HIV-1 NL4-3(36G)V38A): 23.7 ± 5.15 µM
IC90 (HIV-1 NL4-3(36G)V38A): 32.5 ± 5.42 µM
EC50 (HIV-1 IIIB): 1990 ± 80 nM
EC50 [2]: 14.4 ± 1.24 µM
IC50 (HIV-1 92UG029): 2080 ± 41 nM
IC90 (HIV-1 92UG029): 2480 ± 41 nM
IC50 [3]: 16.3 ± 3.03 µM
IC90 [3]: 33.9 ± 6.14 µM
IC50 (HIV-1 BCF02; read-out: IC50): 1790 ± 238 nM
IC90 (HIV-1 BCF02; read-out: IC90): 3.48 ± 1.09 µM
IC50 (HIV-1 93/BR/020): 4.91 ± 0.13 µM
IC90 (HIV-1 93/BR/020; read-out: IC90): 6.76 ± 1.56 µM
IC50 (HIV-1 US4 (GS 007); read-out: IC50): 2340 ± 353 nM
IC90 (HIV-1 US4 (GS 007); read-out: IC90): 5.27 ± 2.73 µM
EC50 [4]: ~19.7 µM
inhibitory activity against Q577A mutant pseudovirus [5]: retained the inhibitory activity
Kd [6]: 411 nM
EC50 [7]: 15.7 to 24.7 µM

Reference: PMC6688628, “N-Substituted Pyrrole Derivative 12m Inhibits HIV-1 Entry by Targeting Gp41 of HIV-1 Envelope Glycoprotein” (Frontiers in Pharmacology, 2019)
